Source: patent US9416115B2, “Fused heterocyclic compounds as ion channel modulators” (Gilead Sciences, Inc., priority 2013, dated 2016)
Where two headings read alike, the source gives them in different places.

Assays:
[1] = molecular target: T1, wild-type human cardiac sodium channel, hNav1.5 (Homo sapiens, UniProt Q14524); assay: Peak INa screening assay (tonic block and use-dependent block); format: cell-based
Summary of the method: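 Whole-cell automated patch clamp, 23-25° C, on hNav1.5 alpha-only HEK293 cells with Na+ lowered to 40 mM by choline. Block measured after two additions of 1 or 3 μM compound and 200 s wait: tonic at 0.1 Hz, use-dependent at 50th pulse (−20 mV, 20 ms, 3 Hz) from −100 mV, relative to drug-free, rundown corrected.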

[2] = molecular target: T1, wild-type human cardiac sodium channel, hNav1.5; assay: Late INa screening assay (QPatch whole cell patch clamp, Tefluthrin-induced late current); format: cell-based; settings: 1 uM; HEK293 hNav1.5; percent block of late INa
Summary of the method: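 HEK293 cells stably expressing hNav1.5 without beta subunits were whole-cell patch clamped at 23-25 °C, stepping from −120 to −20 mV for 250 ms at 0.1 Hz. Late current (240–265 ms) was induced with 10 μM Tefluthrin, and compounds were added typically at 0.3 or 1 μM. Percent block was taken against 0 Na baseline with rundown correction.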

[3] = tonic block of Peak INa, 0.1 Hz, holding -100 mV, read-out: Peak TB 3 uM
[4] = use-dependent block of Peak INa, 3 Hz, pulse 50, read-out: Peak UDB 3 Hz 3 uM

T1 sequence (Q14524 whole entry): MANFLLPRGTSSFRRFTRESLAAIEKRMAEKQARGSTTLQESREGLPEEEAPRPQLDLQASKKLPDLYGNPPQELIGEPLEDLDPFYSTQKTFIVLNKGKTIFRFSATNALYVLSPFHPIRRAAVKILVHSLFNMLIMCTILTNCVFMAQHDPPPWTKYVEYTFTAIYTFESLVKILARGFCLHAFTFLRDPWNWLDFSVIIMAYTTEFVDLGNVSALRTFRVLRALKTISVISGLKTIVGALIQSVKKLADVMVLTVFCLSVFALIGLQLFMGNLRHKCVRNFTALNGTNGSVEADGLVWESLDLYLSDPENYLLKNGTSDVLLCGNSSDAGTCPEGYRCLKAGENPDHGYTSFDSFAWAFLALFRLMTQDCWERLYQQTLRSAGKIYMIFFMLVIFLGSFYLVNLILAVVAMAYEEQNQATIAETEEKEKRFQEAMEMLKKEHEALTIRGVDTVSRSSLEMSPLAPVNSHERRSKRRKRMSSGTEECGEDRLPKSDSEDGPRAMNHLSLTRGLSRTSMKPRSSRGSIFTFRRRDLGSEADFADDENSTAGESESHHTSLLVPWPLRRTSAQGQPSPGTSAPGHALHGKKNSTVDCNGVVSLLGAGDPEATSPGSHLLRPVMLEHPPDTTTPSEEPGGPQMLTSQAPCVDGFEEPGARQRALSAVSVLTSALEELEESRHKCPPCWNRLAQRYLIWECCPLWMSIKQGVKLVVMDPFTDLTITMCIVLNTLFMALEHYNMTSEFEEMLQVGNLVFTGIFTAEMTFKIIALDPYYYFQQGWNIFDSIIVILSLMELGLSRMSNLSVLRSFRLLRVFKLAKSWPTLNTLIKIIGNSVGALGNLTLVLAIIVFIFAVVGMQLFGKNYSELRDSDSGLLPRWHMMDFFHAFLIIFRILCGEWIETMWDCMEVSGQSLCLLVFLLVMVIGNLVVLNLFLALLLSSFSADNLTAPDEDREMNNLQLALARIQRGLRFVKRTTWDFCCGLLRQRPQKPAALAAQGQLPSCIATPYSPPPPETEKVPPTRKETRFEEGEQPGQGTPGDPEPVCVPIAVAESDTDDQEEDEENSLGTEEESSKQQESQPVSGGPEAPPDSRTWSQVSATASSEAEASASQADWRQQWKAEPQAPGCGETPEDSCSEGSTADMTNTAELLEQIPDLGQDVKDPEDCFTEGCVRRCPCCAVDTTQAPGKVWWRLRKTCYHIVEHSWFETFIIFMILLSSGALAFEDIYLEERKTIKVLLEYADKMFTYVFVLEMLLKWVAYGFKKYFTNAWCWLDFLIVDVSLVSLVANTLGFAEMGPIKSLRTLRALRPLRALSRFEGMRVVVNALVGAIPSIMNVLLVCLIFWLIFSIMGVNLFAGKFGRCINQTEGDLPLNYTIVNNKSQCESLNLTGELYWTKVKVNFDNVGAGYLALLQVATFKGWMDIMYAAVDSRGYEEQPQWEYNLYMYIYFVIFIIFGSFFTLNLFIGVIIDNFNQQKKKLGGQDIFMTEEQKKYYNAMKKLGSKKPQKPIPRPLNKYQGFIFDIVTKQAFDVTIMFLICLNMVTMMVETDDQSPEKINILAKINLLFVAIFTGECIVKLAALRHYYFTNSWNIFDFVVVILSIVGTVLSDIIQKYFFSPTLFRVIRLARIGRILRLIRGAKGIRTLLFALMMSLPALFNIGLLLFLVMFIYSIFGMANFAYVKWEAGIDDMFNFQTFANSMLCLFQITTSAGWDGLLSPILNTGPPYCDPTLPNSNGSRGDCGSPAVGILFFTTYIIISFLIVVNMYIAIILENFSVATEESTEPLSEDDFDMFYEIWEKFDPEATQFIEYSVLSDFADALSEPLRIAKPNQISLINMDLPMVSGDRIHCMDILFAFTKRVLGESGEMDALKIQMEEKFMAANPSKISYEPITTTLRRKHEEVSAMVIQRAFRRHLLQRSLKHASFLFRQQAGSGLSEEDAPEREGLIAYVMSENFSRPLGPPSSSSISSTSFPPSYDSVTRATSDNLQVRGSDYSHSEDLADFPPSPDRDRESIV

Row | Compound | inhibition at 3 µM [1, 3] | inhibition at 3 µM [1, 4] | inhibition at 1 µM [2]
1 | O=C1CC[C@H](COc2noc3ccc(-c4ccc(OC(F)(F)F)cc4)cc23)N1 [Example 61, (R)-5-(((5-(4-(trifluoromethoxy)phenyl)benzo[d]isoxazol-3-yl)oxy)methyl)pyrrolidin-2-one] | 11.8% | 6.6% | 38.2%
2 | FC(F)(F)Oc1ccc(-c2ccc3onc(OCc4cn[nH]c4)c3c2)cc1 [Example 45, 3-((1H-pyrazol-4-yl)methoxy)-5-(4-(trifluoromethoxy)phenyl)benzo[d]isoxazole] | 16.8% | 15.1% | 43.6%
3 | FC(F)(F)Oc1ccc(-c2ccc3onc(OCCn4cnnc4)c3c2)cc1 [Example 63, 3-(2-(4H-1,2,4-triazol-4-yl)ethoxy)-5-(4-(trifluoromethoxy)phenyl)benzo[d]isoxazole] | 39% | 13.3% | 44.1%
4 | Cc1nc(C)n(C(C)COc2noc3ccc(-c4ccc(OC(F)(F)F)cc4)cc23)n1 (stereo not drawn) [Example 79, 3-(2-(3,5-dimethyl-1H-1,2,4-triazol-1-yl)propoxy)-5-(4-(trifluoromethoxy)phenyl)benzo[d]isoxazole] | 26% | < 5% | 46.1%
5 | CC1(COc2noc3ccc(-c4ccc(OC(F)(F)F)cc4)cc23)COC1 [Example 92, 3-((3-methyloxetan-3-yl)methoxy)-5-(4-(trifluoromethoxy)phenyl)benzo[d]isoxazole] | 9.6% | < 5% | 36.3%
